# Measured values published in patent US11643416B2, “Substituted 1′,2′-dihydro-3′H-spiro[cyclohexane-1,4′-pyrimido[5′,4′:4,5]pyrrolo[2,1-c][1,2,4]triazin]-3′-ones as cyclin-dependent kinase inhibitors” (G1 Therapeutics, Inc., priority 2020, dated 2023).
# Target: CDK5 (Homo sapiens (Human), UniProt Q00535)
# Test: CDK5 kinase assay (Nanosyn, Caliper microfluidic)
# Format: biochemical
# Settings: ATP at Km; 12-point dose-response
# Experimental: Selected compounds disclosed herein were tested in kinase assays by Nanosyn (Santa Clara, Calif.) to determine their inhibitory effect on these CDKs. The assays were performed using microfluidic kinase detection technology (Caliper Assay Platform). The compounds were tested in 12-point dose-response format in singlicate at Km for ATP.
# CDK5, sequence (Q00535 whole entry): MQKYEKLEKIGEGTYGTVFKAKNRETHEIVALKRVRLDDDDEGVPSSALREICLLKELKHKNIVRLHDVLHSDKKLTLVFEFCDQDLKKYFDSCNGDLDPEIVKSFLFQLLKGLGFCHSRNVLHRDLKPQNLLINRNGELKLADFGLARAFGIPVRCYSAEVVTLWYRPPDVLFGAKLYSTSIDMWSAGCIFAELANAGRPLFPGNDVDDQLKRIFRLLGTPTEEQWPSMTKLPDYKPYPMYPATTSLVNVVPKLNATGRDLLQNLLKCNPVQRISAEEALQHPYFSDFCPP
# CDK5, sequence (Q15078 whole entry partner): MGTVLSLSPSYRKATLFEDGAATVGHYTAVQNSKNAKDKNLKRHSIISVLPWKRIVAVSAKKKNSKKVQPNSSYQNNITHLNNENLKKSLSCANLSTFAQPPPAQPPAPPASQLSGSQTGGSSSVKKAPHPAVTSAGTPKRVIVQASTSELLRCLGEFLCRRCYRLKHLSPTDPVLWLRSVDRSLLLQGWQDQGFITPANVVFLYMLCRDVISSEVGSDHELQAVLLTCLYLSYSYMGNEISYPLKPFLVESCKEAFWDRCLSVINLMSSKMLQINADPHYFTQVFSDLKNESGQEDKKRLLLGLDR
row,SMILES,IC50
1,"NS(=O)(=O)c1ccc(Nc2ncc3cc4n(c3n2)C2(CCCCC2)C(=O)NC4O)cc1 (centres unmarked) [Compound 1, 4-((6′-hydroxy-8′-oxo-7′,8′-dihydro-6′H-spiro[cyclohexane-1,9′-pyrazino[1′,2′:1,5]pyrrolo[2,3-d]pyrimidin]-2'-yl)amino)benzenesulfonamide]",0.68 nM
2,"NS(=O)(=O)c1ccc(Nc2ncc3cc4n(c3n2)C2(CCCCC2)CC(=O)N4)cc1 [Compound 2, 4-((7′-oxo-7′,8′-dihydro-6′H-spiro[cyclohexane-1,9′-pyrrolo[1,5-a:2,3-d′]dipyrimidin]-2′-yl)amino)benzenesulfonamide]",1.4 nM
3,"NS(=O)(=O)c1ccc(Nc2ncc3cc4n(c3n2)C2(CCCCC2)C(=O)NN4)cc1 [Compound 3, 4-((3′-oxo-2′,3′-dihydro-1′H-spiro[cyclohexane-1,4′-pyrimido[5′,4′:4,5]pyrrolo[2,1-c][1,2,4]triazin]-7′-yl)amino)benzenesulfonamide]",17 nM
4,"NS(=O)(=O)c1ccc(Nc2ncc3cc4n(c3n2)C2(C=NN4)CCCCC2)cc1 [Compound 4, 4-((1′H-spiro[cyclohexane-1,4′-pyrimido[5′,4′:4,5]pyrrolo[2,1-c][1,2,4]triazin]-7′-yl)amino)benzenesulfonamide]",6 nM
5,"CN1N=CC2(CCCCC2)n2c1cc1cnc(Nc3ccc(S(N)(=O)=O)cc3)nc12 [Compound 5, 4-((1′-methyl-1′H-spiro[cyclohexane-1,4′-pyrimido[5′,4′:4,5]pyrrolo[2,1-c][1,2,4]triazin]-7′-yl)amino)benzenesulfonamide]",30 nM
6,"CN1NC(=O)C2(CCCCC2)n2c1cc1cnc(Nc3ccc(S(N)(=O)=O)cc3)nc12 [Compound 12, 4-((1′-methyl-3′-oxo-2′,3′-dihydro-1′H-spiro[cyclohexane-1,4′-pyrimido[5′,4′:4,5]pyrrolo[2,1-c][1,2,4]triazin]-7′-yl)amino)benzenesulfonamide]",120 nM
7,"NS(=O)(=O)c1ccc(Nc2ncc3cc4n(c3n2)C2(CCCCC2)C(=O)N[C@H]4CF)cc1 [Compound 18, (R)-4-((6′-(fluoromethyl)-8′-oxo-7′,8′-dihydro-6′H-spiro[cyclohexane-1,9′-pyrazino[1′,2′:1,5]pyrrolo[2,3-d]pyrimidin]-2′-yl)amino)benzenesulfonamide]",16 nM
8,"C[C@@H]1NC(=O)C2(CCCCC2)n2c1cc1cnc(Nc3ccc(S(N)(=O)=O)cc3)nc12 [Compound 19, (S)-4-((6′-methyl-8′-oxo-7′,8′-dihydro-6′H-spiro[cyclohexane-1,9′-pyrazino[1′,2′:1,5]pyrrolo[2,3-d]pyrimidin]-2′-yl)amino)benzenesulfonamide]",50 nM
9,"NS(=O)(=O)c1ccc(Nc2ncc3cc4n(c3n2)C2(CCCCC2)C(=O)N[C@@H]4CF)cc1 [Compound 23, (S)-4-((6′-(fluoromethyl)-8′-oxo-7′,8′-dihydro-6′H-spiro[cyclohexane-1,9′-pyrazino[1′2′:1,5]pyrrolo[2,3-d]pyrimidin]-2′-yl)amino)benzenesulfonamide]",12 nM
10,"CC1C(=O)Nc2cc3cnc(Nc4ccc(S(N)(=O)=O)cc4)nc3n2C12CCCCC2 (centres unmarked) [Compound 42, 4-((8′-methyl-7′-oxo-7′,8′-dihydro-6′H-spiro[cyclohexane-1,9′-pyrrolo[1,5-a:2,3-d′]dipyrimidin]-2′-yl)amino)benzenesulfonamide]",2 nM
11,"CC1C(=O)N(C)c2cc3cnc(Nc4ccc(S(N)(=O)=O)cc4)nc3n2C12CCCCC2 (centres unmarked) [Compound 43, 4-((6′,8′-dimethyl-7′-oxo-7′,8′-dihydro-6′H-spiro[cyclohexane-1,9′-pyrrolo[1,5-a:2,3-d′]dipyrimidin]-2′-yl)amino)benzenesulfonamide]",15 nM
12,"CC1=NNc2cc3cnc(Nc4ccc(S(N)(=O)=O)cc4)nc3n2C12CCCCC2 [Compound 45, 4-((3′-methyl-1′H-spiro[cyclohexane-1,4′-pyrimido[5′,4′:4,5]pyrrolo[2,1-c][1,2,4]triazin]-7′-yl)amino)benzenesulfonamide]",48 nM
13,"CC1=NN(C)c2cc3cnc(Nc4ccc(S(N)(=O)=O)cc4)nc3n2C12CCCCC2 [Compound 46, 4-((1′,3′-dimethyl-1′H-spiro[cyclohexane-1,4′-pyrimido[5′,4′:4,5]pyrrolo[2,1-c][1,2,4]triazin]-7′-yl)amino)benzenesulfonamide]",11 nM
14,"CN1CCN(S(=O)(=O)c2ccc(Nc3ncc4cc5n(c4n3)C3(CCCCC3)C(=O)NN5)cc2)CC1 [Compound 49, 7′-((4-((4-methylpiperazin-1-yl)sulfonyl)phenyl)amino)-1′,2′-dihydro-3′H-spiro[cyclohexane-1,4′-pyrimido[5′,4′:4,5]pyrrolo[2,1-c][1,2,4]triazin]-3′-one]",105 nM
15,"CN1CCN(S(=O)(=O)c2ccc(Nc3ncc4cc5n(c4n3)C3(CCCCC3)C(=O)NC5O)cc2)CC1 (centres unmarked) [Compound 50, 6′-hydroxy-2′-((4-((4-methylpiperazin-1-yl)sulfonyl)phenyl)amino)-6′,7′-dihydro-8′H-spiro[cyclohexane-1,9′-pyrazino[1′,2′:1,5]pyrrolo[2,3-d]pyrimidin]-8′-one]",71 nM
16,"CN1CCN(S(=O)(=O)c2ccc(Nc3ncc4cc5n(c4n3)C3(CCCCC3)CC(=O)N5)cc2)CC1 [Compound 51, 2′-((4-((4-methylpiperazin-1-yl)sulfonyl)phenyl)amino)-6′H-spiro[cyclohexane-1,9′-pyrrolo[1,5-a:2,3-d′]dipyrimidin]-7′(8′H)-one]",7 nM
17,"CN1CCN(C(=O)c2ccc(Nc3ncc4cc5n(c4n3)C3(CCCCC3)C(=O)NN5)cc2)CC1 [Compound 52, 7′-((4-(4-methylpiperazine-1-carbonyl)phenyl)amino)-1′,2′-dihydro-3′H-spiro[cyclohexane-1,4′-pyrimido[5′,4′:4,5]pyrrolo[2,1-c][1,2,4]triazin]-3′-one]",84 nM
18,"CN1CCN(C(=O)c2ccc(Nc3ncc4cc5n(c4n3)C3(CCCCC3)C(=O)NC5O)cc2)CC1 (centres unmarked) [Compound 53, 6′-hydroxy-2′-((4-(4-methylpiperazine-1-carbonyl)phenyl)amino)-6′,7′-dihydro-8′H-spiro[cyclohexane-1,9′-pyrazino[1′,2′:1,5]pyrrolo[2,3-d]pyrimidin]-8′-one]",4 nM
19,"CN1CCN(C(=O)c2ccc(Nc3ncc4cc5n(c4n3)C3(CCCCC3)CC(=O)N5)cc2)CC1 [Compound 54, 2′-((4-(4-methylpiperazine-1-carbonyl)phenyl)amino)-6′H-spiro[cyclohexane-1,9′-pyrrolo[1,5-a:2,3-d′]dipyrimidin]-7′(8′H)-one]",3 nM
20,"O=C1NCC2(CCCCC2)n2c1cc1cnc(Nc3ccc(C(=O)N4CCNCC4)cc3)nc12 [Compound 55, 2′-((4-(piperazine-1-carbonyl)phenyl)amino)-7′,8′-dihydro-6′H-spiro[cyclohexane-1,9′-pyrazino[1′,2′:1,5]pyrrolo[2,3-d]pyrimidin]-6′-one]",1 nM
21,"CC1C(=O)Nc2cc3cnc(Nc4ccc(S(=O)(=O)N5CCN(C)CC5)cc4)nc3n2C12CCCCC2 (centres unmarked) [Compound 59, 8′-methyl-2′-((4-((4-methylpiperazin-1-yl)sulfonyl)phenyl)amino)-6′H-spiro[cyclohexane-1,9′-pyrrolo[1,5-a:2,3-d′]dipyrimidin]-7′(8′H)-one]",6 nM
22,"O=C(c1ccc(Nc2ncc3cc4n(c3n2)C2(CCCCC2)C(=O)NN4)cc1)N1CCNCC1 [Compound 61, 7′-((4-(piperazine-1-carbonyl)phenyl)amino)-1′,2′-dihydro-3′H-spiro[cyclohexane-1,4′-pyrimido[5′,4′:4,5]pyrrolo[2,1-c][1,2,4]triazin]-3′-one]",72 nM
23,"CN(C)C(=O)c1ccc(Nc2ncc3cc4n(c3n2)C2(CCCCC2)C(=O)NN4)cc1 [Compound 62, N,N-dimethyl-4-((3′-oxo-2′,3′-dihydro-1′H-spiro[cyclohexane-1,4′-pyrimido[5′,4′:4,5]pyrrolo[2,1-c][1,2,4]triazin]-7′-yl)amino)benzamide]",131 nM
24,"NC(=O)c1ccc(Nc2ncc3cc4n(c3n2)C2(CCCCC2)C(=O)NN4)cc1 [Compound 63, 4-((3′-oxo-2′,3′-dihydro-1′H-spiro[cyclohexane-1,4′-pyrimido[5′,4′:4,5]pyrrolo[2,1-c][1,2,4]triazin]-7′-yl)amino)benzamide]",78 nM
25,"CNC(=O)c1ccc(Nc2ncc3cc4n(c3n2)C2(CCCCC2)C(=O)NN4)cc1 [Compound 64, N-methyl-4-((3′-oxo-2′,3′-dihydro-1′H-spiro[cyclohexane-1,4′-pyrimido[5′,4′:4,5]pyrrolo[2,1-c][1,2,4]triazin]-7′-yl)amino)benzamide]",65 nM
26,"O=C(c1ccc(Nc2ncc3cc4n(c3n2)C2(CCCCC2)C(=O)NN4)cc1)N1CCOCC1 [Compound 74, 7′-((4-(morpholine-4-carbonyl)phenyl)amino)-1′,2′-dihydro-3′H-spiro[cyclohexane-1,4′-pyrimido[5′,4′:4,5]pyrrolo[2,1-c][1,2,4]triazin]-3′-one]",92 nM
